Where two headings read alike, the source gives them in different places.

Assay [1] concerns duck hepatitis B virus (DHBV). As to the kind of experiment: Anti-HBV test: effect on the replication of the duck hepatitis B virus (DHBV) in infected duck hepatocytes (viral DNA). The class given is cell-based. To be noted: Hepatocyte, 240 h, read-out: IC50, inhibition of the replication of DHBV virus. From the text: Among the several methodologies used for evaluating the activity of compounds on Hepatitis B virus (HBV), the pattern of Hepatitis B virus of the duck (Duck HBV) has been utilized (J. Med. Virology (1990) 31 82-89; Viral Hepatitis and Liver disease (1988) 506-509; Hepatology (1989) 10 186-191). The material of culture to test <<in vitro>> the anti HBV activity of the compounds is made of duck hepatocytes infected by the duck Hepatitis B virus (DHBV) (Antimicrob. Agents Chemother. (1989) 33 336-339; J. Med. Virology 40,59-64; Antivir Res. (1993) 21, 155-171; Antimicrob. Agents Chemother. (1993) 37 1539-1542). Indeed the Hepatitis B virus of the duck is recognized as being very close to the human hepatitis B virus (Viral Hepatitis and Liver Disease (1988) 526-529. Antiviral Research (1987) 8189-199). Under standardized conditions (Virology (1989) 171 564-572) the cultures of duck hepatocytes allow the complete replication of DHBV. The antiviral activity of the tested compounds has been measured as a function of the amount of viral DNA produced during 10 days of culture of the infected hepatocytes.
A young male duck 3 weeks old, affected by DHBV, is used for the production of hepatocytes. The duck is killed under anesthesia and the isolation of hepatocytes is carried out using the methodology of Guillouzou (Research in isolated and cultured hepatocytes, J. Libbey Eurotex Ltd / INSERM, 1986). The cells are cultured in the Leibowitz's medium and 5 μg/ml bovine insuline, 7×10^-5 mole cortisone hemisuccinate and 1,5% dimethylsulfoxide (DMSO) are added thereto. The density of the cells is 8×10^6 cells, they are sprayed in culture boxes of 100×20 mm. The tested compounds are added to the culture after the spread out of the cells. The medium is renewed every day, during 10 days. The production of viral DNA of the duck hepatitis B virus in the cells surpernatant is determined by means of hybridation method "Dot blot" according to Fourel and al. (Viral Hepatitis and Liver Disease, 1988, 506-509; Hepatology, 1989, 10, 186-191). Inhibition is expressed as a percentage of the DNA amount present on the supernatant of cells with regard to a culture infected by DHBV untreated with a nucleosidic derivative.
The most representative described compounds have been tested for their effect on the replication of the duck virus HBV (DHBV) along the protocol exposed in the experimental part of this document.

The test system of assay [2] is HIV-1 virus (BRU) in MT4 cells. Briefly: Anti-HIV test: inhibition of HIV-1 replication (syncitia formation) in infected MT4 cells. The class given is cell-based. The text has this:
The evaluation of the antiviral action is based on the study of cytopathogenic effect of HIV-1 Virus on the cell line MT4. The cell line MT4 has as an origin T cells isolated from a patient, transformed by the […]. The cytopathogenic effect of HIV-1 virus is shown by the formation of multinucleated giant cells called <> visible under the microscope. This effect of HIV-1 is observed 4 to 5 days after infection. It is followed with the death of cells.
The cytopathogenic effect is directly correlated to the infection of the cells by the virus, to its intracellular replication and to the expression of viral antigens by the cells. An inhibition of this effect thus corresponds to an inhibition of the multiplication of HIV-1 virus.
The MT4 cells are maintained at 3.10^5 cells/ml in a RPMI 1640 medium : 10% of decomplemented fetal calf serum for 30 mn at 56° C. (hormons, serum growth factors . . . ), 1% glutamine, 1% penicillin streptomycin and 2 μg/ml Polyren which promotes the viral adhesion to the cells.
The action of the treatment by the anti-viral agent is continuous. In fact this effect is present before during and after the viral infection. Successive dilutions are performed in the 10% fetal calf serum to be able to cultivate the MT4 cells for 8 days and to observe the formation of syncithias.
Before infection : 3×10^6 cells/100 μl are distributed in a microtiter plate with 96 wells and centrifugated for 3 min. at 2000 rpm (rounds per minute). The pellet is then pre-incubated for 1 hour at 37° C., with 100 μl of various concentrations of the anti-viral agent to be tested.
Infection : The infection is achieved in microwells while adding 100 TCIU (infection units) of HIV-1 virus (this titer of HIV-1 virus is determined as to induce the formation of syncithias in 4 or 5 days). The anti-viral agent is always present at the time of infection and dilution of the virus at 100 TCIU.
After infection : After incubation for 1 hour at 37° C., the MT4 cells are washed three times with RPMI 1640 medium and cultured on account of 3.10^5 cells per milliliter of each of the concentration of the compounds to be tested on plates of 24 wells. When passing at day D3 the MT4 cells are diluted to 1/3. The concentration of the anti-viral agent is maintained. Each day occurrence of syncithia is observed under the microscope to detect any optional delay with respect to the controls HIV-1. At day D8 the determination of reverse transcriptase is carried out. When the cells are not infected thus it is a protection by the tested anti-viral agent.
The compounds the synthesis of which has been described in this patent application and the related structures given in the previous prior art, have an affect on the inhibition of the replication of BRU HIV-1 virus (BRU beeing the vital strain experienced) in the case where the infected cells are of the type MT4.
In the table I they have been described the results of the tests. Column 1 provides the names of the most representative studied compounds and in column 2 they are reported the so-called IC50 values (concentration of the component giving a 50% inhibition of the replication of HIV in the infected MT4 cells, measured at day D7 after infection). In observing and counting the number of formed syncitia in relation with that counted in the case of infected MT4 cells but untreated with antiviral compound, the value IC50 is determined.

Setting [3] is: duck hepatocytes infected by DHBV, viral DNA in supernatant, dot blot, 10 days of culture.
Setting [4] is: Human immunodeficiency virus 1, BRU HIV-1, MT4 cells, syncitia count, day D7 after infection, read-out: IC50 (concentration giving a 50% inhibition of the replication of HIV in the infected MT4 cells).

In the case of `O=C(Nc1ccn([C@@H]2CS[C@H](CO)O2)c(=O)n1)c1cccnc1` (relative stereo) [Compound 2, Cis 2-(hydroxymethyl)-5 [N^4-(3"-pyridinylcarbonyl)cytosin-1'-yl]-1,3-oxathiolan], the figures for the IC50 in assay [1] (setting [3]) and in assay [2] (setting [4]) were 2 ± 0.5 µM and 0.1 to 1 µM, respectively.

In the case of `O=C(Nc1ccn([C@@H]2CS[C@H](CO)O2)c(=O)n1)c1cnc2ccccc2c1` (relative stereo) [Compound 8], the IC50 worked out at 2 µM in assay [1] (setting [3]) and 10 µM in assay [2] (setting [4]).

Regarding `C[n+]1cc(C(=O)Nc2ccn([C@@H]3CS[C@H](CO)O3)c(=O)n2)cc2ccccc21` (relative stereo) [Compound 9, cis 2-hydroxymethyl 5-[N^4-(1"-methyl 3"-quinolinyicarbonyl)cytosin-1'yl]-1,3-oxathiolane], the IC50 is 2 µM in assay [1] and more than 100 µM in assay [2] (Human immunodeficiency virus 1, MT4, read-out: IC50 (concentration giving a 50% inhibition of the replication of HIV in the infected MT4 cells)).

In the case of `CN1C=C(C(=O)Nc2ccn([C@@H]3CS[C@H](CO)O3)c(=O)n2)Cc2ccccc21` (relative stereo) [Compound 10, cis 2-hydroxymethyl 5-[N^4-(1"-methyl 1", 4"-dihydro 3"-quinolinylcarbonyl)cytosin-1'yl]-1,3-oxathiolane], the IC50 was 2 µM in assay [1] (setting [3]) and 1 to 10 µM in assay [2] (setting [4]).

In the case of `O=C(Nc1ccn([C@@H]2CS[C@H](CO)O2)c(=O)n1)c1cccnc1Nc1cccc(C(F)(F)F)c1` (relative stereo) [Compound 11, cis 2-hydroxymethyl-5-[N^4-(2-(a,a,a-trifluoro-m-toluidino)nicotinyl)-cytosin-1'yl]-1,3-oxathiolane], the IC50 in assay [2] (setting [4]) was less than 100 µM.

`Nc1ccn([C@H]2CS[C@@H](CO)O2)c(=O)n1` [BCH-189, 2',3'-dideoxy 3'-thiacytidine, reference compound]: the values for the IC50 in assay [1] (setting [3]) and in assay [2] (setting [4]) were 1 ± 0.5 µM and 1 µM, respectively.

For the origin of these results see patent US5708000A, “N4-substituted cytosinyl 1,3-oxathiolane nucleoside analogues, and their antiviral activity” (Laboratoire Laphal, priority 1994, dated 1998).
